# According to patent publication US5763413A, “Lewis-associated compound, process for producing the same, and anti-inflammatory” (MECT Corporation, priority 1993, dated 1998):
# Legend:
# [1] = Simple acute toxicity test (intravenous injection); type: in vivo, male mice of ddY strain; details: i.v. (tail vein), ddY mice
# Method: Example of Test 1 (Simple Acute Toxicity Test)
# The simple acute toxicity test was carried out by an intravenous injection of compounds of the present invention.
# Into the tail vein of male mice of ddY strain weighing 18~20 g which have been kept under the conditions at the temperature of 23°±1° C. and in the humidity of 55 ±7% were injected a solution of the compound of the present invention dissolved in the physiological saline containing the desired dose per 20 g body weighing 0.2 ml. Two dosages of which were 50 mg/kg and 500 mg/kg body weight were used.
# passive Arthus reaction [2] = assay: Anti-inflammatory activity test: passive Arthus reaction (Example of Test 2); type: in vivo, male guinea pigs of the Hartley strain; details: Table 21, 30 min before antigen
# Method: Example of Test 2 (Anti-inflammatory Activity Test)
# (§1) Male guinea pigs of the Hartley strain weighing 200~250 g were used.
# (2) Experimental Materials
# (§2) The anti-ovalbumin rabbit serum (PCA titer=1/80,000) and ovalbumin were used as the antiserum and antigen, respectively.
# (§3) The passive Arthus reaction was performed according to the method of Katayama et al. [Katayama, S. et al., Arzeim-Forsch., 31, 1196 (1981)]. That is, guinea pigs were sensitized by an intravenous injection of said anti-ovalbumin rabbit serum (2.5 ml/kg). Thirty minutes after the injection, the Arthus reaction was induced by the intradermal injection of an antigen solution (0.05 ml) containing 0.10 mg of ovalbumin to the abdomen shaved the day before. Two hours after the antigen challenge, the area of intradermal bleeding was measured and used as the index representing the grade of inflammatory reaction. Test compounds were intravenously injected 30 min before the antigen injection. Four guinea pigs per each group were used.
# (§4) The percent inhibi- is expressed as the bleeding area of the challenged site (%) of the animal group injected with each compound relative to that (100%) of the group administered with the physiological saline.
# passive Arthus reaction [3] = assay: Anti-inflammatory activity test, carried out as Example of Test 2 (Example of Test 3); type: in vivo, male guinea pigs of the Hartley strain; details: Table 22, i.v.
# Method: as §1, §2, §3, §4
# The anti-inflammatory activity test of compounds of the present invention was similarly carried out as in the case of Example of Test 2.
SMILES,Mortality ([1]; 50 mg/kg),Mortality ([1]; 500 mg/kg),Percent inhibition (passive Arthus reaction) (passive Arthus reaction [2]; 1 mg/kg i.v.) [%],Percent inhibition (passive Arthus reaction) (passive Arthus reaction [2]; 3 mg/kg i.v.) [%],"Percent inhibition (passive Arthus reaction) (passive Arthus reaction [2]; 1 mg/kg i.v., 1 mg/kg) [%]","Percent inhibition (passive Arthus reaction) (passive Arthus reaction [2]; 3 mg/kg i.v., 3 mg/kg) [%]",Percent inhibition (passive Arthus reaction) (passive Arthus reaction [3]; 0.01 mg/kg) [%],Percent inhibition (passive Arthus reaction) (passive Arthus reaction [3]; 0.1 mg/kg) [%],Percent inhibition (passive Arthus reaction) (passive Arthus reaction [3]; 1 mg/kg) [%],Percent inhibition (passive Arthus reaction) (passive Arthus reaction [3]; 0.001 (unit of dose not given)) [%]
CCCOC1OC(CO)C(OC2OC(CO)C(O)C(OS(=O)(=O)[O-])C2O)C(OC2OC(C)C(O)C(O)C2O)C1NC(C)=O.[Na+] (stereo not drawn) [Compound 10],0/3,0/3,25.5 ± 17.4,64.8 ± 3.4,,,,,,
CCCOC1OC(CO)C(OC2OC(CO)C(OS(=O)(=O)[O-])C(OS(=O)(=O)[O-])C2OS(=O)(=O)[O-])C(OC2OC(C)C(O)C(O)C2O)C1NC(C)=O.[Na+].[Na+].[Na+] (stereo not drawn) [Compound 12],0/3,0/3,45.3 ± 6.7,67.8 ± 5.2,,,,,,
CCCOC1OC(CO)C(OC2OC(CO)C(O)C(OCC(=O)[O-])C2O)C(OC2OC(C)C(O)C(O)C2O)C1NC(C)=O.[Na+] (stereo not drawn) [Compound 17],0/3,0/3,45.5 ± 3.5,14.9 ± 14.5,,,,,,
CCCOC1OC(CO)C(OC2OC(CO)C(O)C(OCC(=O)[O-])C2OCC(=O)[O-])C(OC2OC(C)C(O)C(O)C2O)C1NC(C)=O.[Na+].[Na+] (stereo not drawn) [Compound 18],0/3,0/3,75.7 ± 3.9,60.8 ± 9.8,,,,,,
CCCOC1OC(CO)C(OC2OC(C)C(O)C(O)C2O)C(OC2OC(CO)C(O)C(OS(=O)(=O)[O-])C2O)C1NC(C)=O.[Na+] (stereo not drawn) [Compound 26],0/3,0/3,75.5 ± 1.6,77.3 ± 8.0,,,,,,
CCCOC1OC(CO)C(OC2OC(C)C(O)C(O)C2O)C(OC2OC(CO)C(O)C(OCC(=O)[O-])C2O)C1NC(C)=O.[Na+] (stereo not drawn) [Compound 30],0/3,0/3,21.0 ± 5.9,15.4 ± 5.3,,,,,,
CCCOC1OC(CO)C(OC2OC(C)C(O)C(O)C2O)C(OC2OC(CO)C(O)C(OCC(=O)[O-])C2OCC(=O)[O-])C1NC(C)=O.[Na+].[Na+] (stereo not drawn) [Compound 31],0/3,0/3,74.5 ± 6.7,15.9 ± 6.4,,,,,,
CCCOC1OC(CO)C(OC2OC(C)C(O)C(O)C2O)C(OC2OC(CO)C(O)C(O)C2OCC(=O)[O-])C1NC(C)=O.[Na+] (stereo not drawn) [Compound 32],0/3,0/3,61.0 ± 4.2,57.4 ± 8.7,,,,,,
CCCOC1OC(CO)C(OC2OC(CO)C(O)C(OC3(C(=O)[O-])CC(O)C(NC(C)=O)C(C(O)C(O)CO)O3)C2O)C(OC2OC(C)C(O)C(O)C2O)C1NC(C)=O.[Na+] (stereo not drawn) [Compound 40],0/3,0/3,,,47.3 ± 7.4,63.5 ± 8.3,,,,
CCCCCCCCCCCCCCCCCCCCCCCC(=O)NC(COC1OC(CO)C(OC2OC(CO)C(O)C(OC3(C(=O)[O-])CC(O)C(NC(C)=O)C(C(O)C(O)CO)O3)C2O)C(OC2OC(C)C(O)C(O)C2O)C1NC(C)=O)C(O)CCCCCCCCCCCCCCC.[Na+] (stereo not drawn) [Compound 46],0/3,0/3,25.6 ± 11.3,74.4 ± 16.3,,,,,,
CC(=O)NC1C(O)CC(OC2C(O)C(CO)OC(OC3C(CO)OC(OCC4OC(O)C(O)C(O)C4O)C(NC(C)=O)C3OC3OC(C)C(O)C(O)C3O)C2O)(C(=O)[O-])OC1C(O)C(O)CO.[Na+] (stereo not drawn) [Compound 53],0/3,0/3,44.8 ± 15.0,58.7 ± 9.5,,,,,,
CC(=O)NC1C(O)CC(OC2C(O)C(CO)OC(OC3C(CO)OC(OC4C(O)C(O)OC(CO)C4O)C(NC(C)=O)C3OC3OC(C)C(O)C(O)C3O)C2O)(C(=O)[O-])OC1C(O)C(O)CO.[Na+] (stereo not drawn) [Compound 62],0/3,0/3,41.9 ± 8.9,57.4 ± 7.3,,,,,,
CCCOC1OC(CO)C(OC2OC(C)C(O)C(O)C2O)C(OC2OC(CO)C(O)C(OC3(C(=O)[O-])CC(O)C(NC(C)=O)C(C(O)C(O)CO)O3)C2O)C1NC(C)=O.[Na+] (stereo not drawn) [Compound 90],0/3,0/3,,,65.4 ± 8.5,69.6 ± 6.3,,,,
CCCOC1OC(CO)C(OC2OC(CO)C(O)C(OC3(C(=O)[O-])CC(O)C(NC(C)=O)C(C(O)C(O)CO)O3)C2O)C(OC2OC(C)C(O)C(O)C2O)C1NC(C)=O.[Na+] (stereo not drawn) [Compound 121],0/3,0/3,,,42.1 ± 8.3,59.8 ± 5.3,,,,
CCCOC1OC(CO)C(OC2OC(C)C(O)C(O)C2O)C(OC2OC(CO)C(O)C(OC3(C(=O)[O-])CC(O)C(NC(C)=O)C(C(O)C(O)CO)O3)C2O)C1NC(C)=O.[Na+] (stereo not drawn) [Compound 123],0/3,0/3,,,76.8 ± 12.0,84.5 ± 5.1,,,,
COc1ccc(OC2OC(CO)C(OC3OC(CO)C(O)C(OS(=O)(=O)[O-])C3OC(=O)C(C)(C)C)C(OC3OC(C)C(O)C(O)C3O)C2OC(=O)C(C)(C)C)cc1.[Na+] (stereo not drawn) [Compound 142],,,,,,,-3.3 ± 2.7,57.6 ± 12.6,84.8 ± 4.6,
COc1ccc(OC2OC(CO)C(OC3OC(CO)C(O)C(OS(=O)(=O)[O-])C3O)C(OC3OC(C)C(O)C(O)C3O)C2O)cc1.[Na+] (stereo not drawn) [Compound 143],,,,,,,84.1 ± 5.2,52.5 ± 12.2,70.1 ± 1.8,
COc1ccc(OC2OC(CO)C(OC3OC(CO)C(OS(=O)(=O)[O-])C(O)C3O)C(OC3OC(C)C(O)C(O)C3O)C2O)cc1.[Na+] (stereo not drawn) [Compound 144],,,,,,,-15.2 ± 6.7,22.0 ± 30.1,23.9 ± 14.7,
CCCOC1OC(CO)C(OC2OC(C)C(O)C(O)C2O)C(OC2OC(CO)C(O)C(O)C2OS(=O)(=O)[O-])C1NC(C)=O.[Na+] (stereo not drawn) [Compound 175],,,,,,,44.6 ± 20.1,62.5 ± 16.1,67.1 ± 4.4,
CCCOC1OC(CO)C(OC2OC(C)C(O)C(O)C2O)C(OC2OC(CO)C(OS(=O)(=O)[O-])C(OS(=O)(=O)[O-])C2OS(=O)(=O)[O-])C1NC(C)=O.[Na+].[Na+].[Na+] (stereo not drawn) [Compound 176],,,,,,,57.5 ± 14.7,83.9 ± 10.1,92.4 ± 3.8,
CCCOC1OC(CO)C(OC2OC(C)C(O)C(O)C2O)C(OC2OC(CO)C(O)C(O)C2OS(=O)(=O)[O-])C1NC(C)=O.[Na+] (stereo not drawn) [Compound 188],,,,,,,57.2 ± 14.5,86.2 ± 1.7,,84.2 ± 5.4
CCCOC1OC(CO)C(OC2OC(C)C(O)C(O)C2O)C(OC2OC(CO)C(O)C(OS(=O)(=O)[O-])C2O)C1NC(C)=O.[Na+] (stereo not drawn) [Compound 189],,,,,,,73.6 ± 8.9,59.8 ± 9.7,,90.9 ± 4.0
CCCOC1OC(CO)C(OC2OC(C)C(O)C(O)C2O)C(OC2OC(CO)C(OS(=O)(=O)[O-])C(O)C2O)C1NC(C)=O.[Na+] (stereo not drawn) [Compound 190],,,,,,,79.3 ± 4.7,76.9 ± 4.1,,12.7 ± 6.3
